Laboratory results reported in patent US20120238488A1, “COMPOUNDS AND METHODS FOR TREATING NEOPLASIA” (priority 2009, published 2012).

Columns and labels:
[1] = system: PCJ (Prostate); assay: SRB assay, PCJ; format: cell-based; details: Homo sapiens, 48 h; for CC50: read-out: LC50; for GI50 / IC (TGI): PCJ, SRB
Procedure: (§1) SRB assays were performed according to standard National Cancer Institute Guidelines. Briefly, human tumor cells from different cancer panels were seeded into 96 well plates in 100 μL (plating densities ranging from 5-40,000 cells/well depending on the doubling time of individual cell lines) in serum-containing media for twenty-four hours prior to the addition of the compounds to be assayed. After 24 hours, one plate of each cell line was fixed in situ with trichloroacetic acid (TCA). The fixed slides were used to determine the cell population for each cell line at the time of drug addition (Tz). Each compound to be tested was solubilized in DMSO and the desired concentration was then added to the medium and diluted serially 1:10 to provide a total of five or ten drug concentrations plus control (in a final volume of 200 μL). The starting dose before any dilution was 100 uM for all compounds.
(§2) Following drug addition, each culture was incubated for forty-eight hours. The assay was terminated with the addition of cold TCA. The supernatant was discarded, and the plates were washed with tap water and air dried. Sulforhodamine B (SRB) solution was then added to each well. After staining, the bound stain was solubilized and the absorbance was read on an automated plate reader at a wavelength of 515 nm.
(§3) Using the absorbance measurements [time zero, (Tz), control growth, (C), and test growth in the presence of drug at the ten concentration levels (Ti)], the percentage growth was calculated at each of the drug concentrations levels. Percentage growth inhibition was calculated as:
(§4) [(Ti−Tz)/(C−Tz)]×100 for concentrations for which Ti>/=Tz
(§5) [(Ti−Tz)/Tz]×100 for concentrations for which Ti<Tz.
(§6) Three dose response parameters were calculated for each experimental agent. Growth inhibition of 50% (GI50) was calculated from [(Ti−Tz)/(C−Tz)]×100=50, which was the drug concentration resulting in a 50% reduction in the net protein increase (as measured by SRB staining) in control cells during the drug. The drug concentration resulting in total growth inhibition (TGI) was calculated from Ti=Tz. The LC50 (concentration of drug resulting in a 50% reduction in the measured protein at the end of the drug treatment as compared to that at the beginning) indicating a net loss of cells following treatment was calculated from [(Ti−Tz)/Tz]×100=−50.
(§7) Values were calculated for each of these three parameters when the level of activity was reached; however, if the effect was not reached or was exceeded, the value for that parameter was expressed as greater or less than the maximum or minimum concentration tested.
(§8) Table 4 summarizes results characterizing the effects of compound Nos. 120, 12, 61, 1, and 56 on GI50, which measures the cell growth inhibitory power of the compound, TGI, which measures cytostatic effect (TGI) and LC50, which signifies cytotoxic effect. Each of these parameters in Table 4 was calculated in a sulforhodamine B (SRB) assay, which provides a colorimetric measure of a compound's anti-cancer activity. SRB assays were performed with compounds of the invention in 22 different cell lines (shaded in light gray in Table 4), which represent nine different tumor panels (lung, melanoma, ovary, prostate, CNS, breast, pancreas colon and renal). Ouabain and digoxin were used as controls. Paclitaxel was added as a non-Na^+K^+-ATPase inhibitor control.

[2] = system: OVCAR5 (Ovary); assay: SRB assay, OVCAR5; format: cell-based, human; details: for CC50 / GI50: Homo sapiens; for CC50: OVCAR-5, 48 h, read-out: LC50; for GI50: OVCAR-5; for GI50 / TGI: OVCAR5, SRB, 48 h
Procedure: as §1, §2, §3, §4, §5, §6, §7, §8

[3] = system: CAKJ1 (Renal); assay: SRB assay, CAKJ1; format: cell-based, human; details: 48 h; for TGI / GI50: CAKJ1, SRB; for CC50 / GI50: Homo sapiens; for CC50: read-out: LC50
Procedure: as §1, §2, §3, §4, §5, §6, §7, §8

[4] = system: A549 (Lung); assay: SRB assay, A549; format: cell-based, human; details: for TGI / GI50: A549, SRB, 48 h; for CC50 / GI50: Homo sapiens; for CC50: A549, 48 h, read-out: LC50
Procedure: as §1, §2, §3, §4, §5, §6, §7, §8

[5] = system: ERVK (Lung); assay: SRB assay, ERVK; format: cell-based, human; details: 48 h; for TGI / GI50: ERVK, SRB; for CC50 / GI50: Homo sapiens; for CC50: read-out: LC50
Procedure: as §1, §2, §3, §4, §5, §6, §7, §8

[6] = system: MB435 (Melanoma); assay: SRB assay, MB435; format: cell-based, human; details: 48 h; for CC50 / GI50: Homo sapiens; for CC50: read-out: LC50; for GI50 / TGI: MB435, SRB
Procedure: as §1, §2, §3, §4, §5, §6, §7, §8

[7] = system: DU145 (Prostate); assay: SRB assay, DU145; format: cell-based, human; details: for TGI / GI50: DU145, SRB, 48 h; for CC50 / GI50: Homo sapiens; for CC50: DU-145, 48 h, read-out: LC50; for GI50: DU-145
Procedure: as §1, §2, §3, §4, §5, §6, §7, §8

[8] = system: OVCAR3 (Ovary); assay: SRB assay, OVCAR3; format: cell-based, human; details: for CC50 / GI50: Homo sapiens; for CC50: OVCAR-3, 48 h, read-out: LC50; for GI50: OVCAR-3; for GI50 / TGI: OVCAR3, SRB, 48 h
Procedure: as §1, §2, §3, §4, §5, §6, §7, §8

[9] = system: Na+/K+-ATPase (Adenosine 5′-Triphosphatase isolated from porcine cerebral cortex); assay: Na+/K+-ATPase inhibitory activity, colorimetric Adenosine 5'-Triphosphatase Enzymatic Assay; format: biochemical; details: for IC50: read-out: Na+K+ ATPase inhibitory activity IC50
Procedure: The inhibitory effect of a compound of the invention on ATPase activity was assessed in vitro using the colorimetric Adenosine 5′-Triphosphatase Enzymatic Assay of Sigma (St. Louis, Mo.) according to the manufacturer's instructions. This assay utilizes Adenosine 5′-Triphosphatase isolated from porcine cerebral cortex. Each reaction was performed in a final volume of 250 μl using 0.5 units/ml enzyme in the presence of different inhibitors. […] IC50 values were determined using the Origin® program software (OriginLab, Northampton, Mass.).

[10] = system: ADRRES (Ovary); assay: SRB assay, ADRRES (multidrug resistant NCI-ADR-RES); format: cell-based, human; details: for TGI / GI50: ADRRES; for TGI / CC50 / GI50: 48 h; for CC50 / GI50: Homo sapiens, NCI/ADR-RES; for CC50: read-out: LC50; for anti-tumor action in multidrug resistant cell line NCI-ADR-RES: cells express high levels of MDR1 and P-glycoprotein
Procedure: NCI-ADR-RES cells have been classified as ovarian cancer cells by the National Cancer Institute.
as §1, §2, §3, §4, §5, §6, §7, §8
Table 4 also presents results with Compound Nos. 120, 12, 61, 1, and 56 in a well characterized drug resistant cell line, NCI-ADR-RES, that expresses high levels of MDR1 and P-glycoprotein.

[11] = system: SF268 (CNS); assay: SRB assay, SF268; format: cell-based; details: Homo sapiens; for CC50: SF-268, 48 h, read-out: LC50; for GI50 / IC (TGI): SF-268, SF268, SRB, 48 h; for GI50: read-out: GI50; for IC (TGI): read-out: TGI
Procedure: as §1, §2, §3, §4, §5, §6, §7, §8

[12] = system: SKMEL28 (Melanoma); assay: SRB assay, SKMEL28; format: cell-based, human; details: for CC50 / GI50: Homo sapiens; for CC50: SK-MEL-28, 48 h, read-out: LC50; for GI50: SK-MEL-28; for GI50 / TGI: SKMEL28, SRB, 48 h
Procedure: as §1, §2, §3, §4, §5, §6, §7, §8

[13] = system: HCT116 (Colon); assay: SRB assay, HCT116; format: cell-based; details: Homo sapiens; for CC50: HCT-116, 48 h, read-out: LC50; for GI50 / IC (TGI): HCT-116, HCT116, SRB, 48 h
Procedure: as §1, §2, §3, §4, §5, §6, §7, §8

Compound: C[C@]12CCC(=NOCCN)C=C1CCC1C2CC[C@]2(C)C(=O)CCC12 (stereo partly drawn) [Compound 12, (10R,13S)-3-(2-aminoethoxyimino)-10,13-dimethyl-2,3,7,8,9,10,11,12,13,14,15,16-dodecahydro-1H-cyclopenta[a]phenanthren-17(6H)-one]
- CC50 [1]: 8.52 µM
- GI50 [1]: 3.54 µM
- IC (TGI) [1]: 6.03 µM
- CC50 [2]: 63.6 µM
- GI50 [2]: 5.3 µM
- TGI [2]: 9.02 µM
- TGI [3]: 6.56 µM
- CC50 [3]: 9.44 µM
- GI50 [3]: 3.69 µM
- TGI [4]: 6.90 µM
- CC50 [4]: 9.73 µM
- GI50 [4]: 4.08 µM
- TGI [5]: 5.13 µM
- CC50 [5]: 8.8 µM
- GI50 [5]: 1.45 µM
- CC50 [6]: 75.8 µM
- GI50 [6]: 5.45 µM
- TGI [6]: 10.24 µM
- TGI [7]: 5.75 µM
- CC50 [7]: 8.45 µM
- GI50 [7]: 3.04 µM
- CC50 [8]: 88.8 µM
- GI50 [8]: 3.01 µM
- TGI [8]: 28.79 µM
- Na+K+ ATPase inhibitory activity (in words) [9]: strong Na+K+ ATPase inhibitory activities
- IC50 [9]: 0.375 µM
- TGI ([10]; SRB): 6.58 µM
- CC50 [10]: 10.1 µM
- GI50 ([10]; SRB): 3.08 µM
- GI50 in NCI-ADR-RES cells compared to non-resistant MCF-7 cells ([10]; SRB): the same GI50 value
- anti-tumor action in multidrug resistant cell line NCI-ADR-RES ([10]; SRB): potent anti-tumor action
- CC50 [11]: 8.51 µM
- GI50 [11]: 2.84 µM
- IC (TGI) [11]: 5.67 µM
- CC50 [12]: 85.6 µM
- GI50 [12]: 8.39 µM
- TGI [12]: 40.16 µM
- CC50 [13]: 10.7 µM
- GI50 [13]: 4.06 µM
- IC (TGI) [13]: 7.38 µM

Compound: C[C@]12CCC(=NOC3CCNC3)CC1CCC1C2CC[C@]2(C)C(=O)CCC12 (stereo partly drawn) [Compound 56, (10S,13S)-10,13-dimethyl-3-(pyrrolidin-3-yloxyimino)tetradecahydro-1H-cyclopenta[a]phenanthren-17(2H)-one]
- CC50 [1]: 0.936 µM
- GI50 [1]: 0.0332 µM
- IC (TGI) [1]: 0.387 µM
- CC50 [2]: 0.741 µM
- GI50 [2]: 0.0749 µM
- TGI [2]: 0.3411 µM
- TGI [3]: 0.0265 µM
- CC50 [3]: 0.172 µM
- GI50 [3]: < 0.001 µM
- TGI [4]: 0.0040 µM
- CC50 [4]: 0.0082 µM
- GI50 [4]: < 0.001 µM
- TGI [5]: 0.0628 µM
- CC50 [5]: 0.288 µM
- GI50 [5]: 0.0179 µM
- CC50 [6]: 0.668 µM
- GI50 [6]: 0.0485 µM
- TGI [6]: 0.2182 µM
- TGI [7]: 0.0220 µM
- CC50 [7]: 0.0706 µM
- GI50 [7]: 0.005 µM
- CC50 [8]: 0.17 µM
- GI50 [8]: 0.0029 µM
- TGI [8]: 0.0114 µM
- Na+K+ ATPase inhibitory activity (in words) [9]: very potent Na+K+ ATPase inhibitors
- IC50 [9]: 0.101 µM
- TGI ([10]; SRB): 0.0491 µM
- CC50 [10]: 0.0908 µM
- GI50 ([10]; SRB): 0.0093 µM
- anti-tumor action in multidrug resistant cell line NCI-ADR-RES ([10]; SRB): potent anti-tumor action
- CC50 [11]: 0.81 µM
- GI50 [11]: 0.0567 µM
- IC (TGI) [11]: 0.349 µM
- CC50 [12]: 3.74 µM
- GI50 [12]: 0.0409 µM
- TGI [12]: 0.2253 µM
- CC50 [13]: 0.762 µM
- GI50 [13]: 0.0058 µM
- IC (TGI) [13]: 0.0705 µM
